From patent US8791148B2, “Substituted benzimidazolone derivatives, medicaments comprising them and their use” (AbbVie Deutschland GmbH & Co. KG, priority 2006, dated 2014)
pKi: −log10 of the molar value.

Molecular target: T1, human vasopressin V1b receptor (Homo sapiens, UniProt P47901)
T1 construct: expressed in transfected cells; host or cells: CHO-K1 (cell line hV1b-3H2_CHO), membrane preparation
T1 sequence (P47901 1-424): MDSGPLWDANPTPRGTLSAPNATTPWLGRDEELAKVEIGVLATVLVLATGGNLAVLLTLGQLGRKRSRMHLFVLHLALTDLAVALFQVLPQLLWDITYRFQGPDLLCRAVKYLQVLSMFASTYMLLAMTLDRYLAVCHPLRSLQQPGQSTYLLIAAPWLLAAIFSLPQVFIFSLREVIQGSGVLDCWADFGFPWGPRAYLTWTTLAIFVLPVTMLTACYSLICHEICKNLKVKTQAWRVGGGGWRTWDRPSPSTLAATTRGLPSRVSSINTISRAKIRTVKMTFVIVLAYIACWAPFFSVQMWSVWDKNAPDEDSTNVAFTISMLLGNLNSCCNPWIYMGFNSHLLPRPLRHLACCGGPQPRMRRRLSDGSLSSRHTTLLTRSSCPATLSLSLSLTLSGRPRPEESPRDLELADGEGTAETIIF
Experiment: Vasopressin V1b receptor binding assay
Conditions: membranes from CHO-K1 cells with stably expressed human V1b receptors; displacement of 1.5 nM 3H-AVP; read-out: V1b receptor affinity (affinity constant Ki)
Procedure: Vasopressin V1b Receptor Binding Assay:
The test substances were dissolved in a concentration of 10^−2 M in DMSO and further diluted to 5×10^−4 M to 5×10^−9 M in DMSO. This series of DMSO predilutions was diluted 1:10 with assay buffer. The substance concentration was again diluted 1:5 in the assay mixture (2% DMSO in the mixture).
The membrane pellet was again homogenized and centrifuged as described and then taken up in 50 mM Tris-HCl, pH 7.4, homogenized and stored in aliquots frozen in liquid nitrogen at −190° C.
The incubation buffer was: 50 mM Tris, 10 mM MgCl2, 0.1% BSA, pH 7.4. […] The nonspecific binding was determined with 1 uM AVP (Bachem #H1780). All determinations were carried out as triplicate determinations. After incubation (60 minutes at room temperature), the free radioligand was removed by vacuum filtration (Skatron cell harvester 7000) through Wathman GF/B glass fiber filter mats, and the filters were transferred into scintillation vials. The liquid scintillation measurement took place in a Tricarb model 2000 or 2200CA instrument (Packard). Conversion of the measured cpm into dpm was carried out with the aid of a standard quench series.
The binding parameters were calculated by nonlinear regression in SAS.
The above assay was used to measure the affinities of the compounds of the invention for the human vasopressin V1b receptor and to determine the affinity constants (Ki).

Row | Compound | pKi
1 | COc1ccc(S(=O)(=O)n2c(=O)n(C(C(=O)N3CCN(c4ccncc4)CC3)c3ccccc3)c3cc(C#N)ccc32)c(OC)c1 (stereo not shown) [Example 48, 1-(2,4-Dimethoxybenzenesulfonyl)-2-oxo-3-[2-oxo-1-phenyl-2-(4-pyridin-4-ylpiperazin-1-yl)-ethyl]-2,3-dihydro-1H-benzimidazole-5-carbonitrile] | 5.00 to 6.30
2 | CCN1CCN([C@H]2CCCN(C(=O)C(c3ccccc3)n3c(=O)n(S(=O)(=O)c4ccc(OC)cc4)c4ccc(C#N)cc43)C2)CC1 (stereo partly drawn) [Example 231, 3-{2-[(S)-3-(4-Ethyl-piperazin-1-yl)-piperidin-1-yl]-2-oxo-1-phenyl-ethyl}-1-(4-methoxy-benzenesulfonyl)-2-oxo-2,3-dihydro-1H-benzoimidazole-5-carbonitrile; compound with trifluoroacetic acid] | > 7.00
3 | O=C(C(c1ccccc1)n1c(=O)n(S(=O)(=O)c2cccc3cccnc23)c2ccc(Cl)cc21)N1CCN(c2ccncc2)CC1 (stereo not shown) [Example 53, 5-Chloro-3-[2-oxo-1-phenyl-2-(4-pyridin-4-ylpiperazin-1-yl)ethyl]-1-(quinoline-8-sulfonyl)-1,3-dihydrobenzimidazol-2-one] | > 7.00
4 | COc1ccc(S(=O)(=O)n2c(=O)n(CC(=O)N3CCCC3)c3cc(Cl)ccc32)cc1 [Example 90, 5-Chloro-1-(4-methoxybenzenesulfonyl)-3-(2-oxo-2-pyrrolidin-1-yl-ethyl)-1,3-dihydrobenzimidazol-2-one] | 5.00 to 6.30
5 | COc1ccc(S(=O)(=O)n2c(=O)n(C(C(=O)N3CCN(C4CCN(C)CC4)CC3)c3ccccc3)c3ccc(Cl)cc32)cc1 (stereo not shown) [Example 38, 5-Chloro-3-(4-methoxybenzenesulfonyl)-1-{2-[4-(1-methylpiperidin-4-yl)piperazin-1-yl]-2-oxo-1-phenylethyl}-1,3-dihydrobenzimidazol-2-one] | 6.30 to 7.00
6 | COc1ccc(S(=O)(=O)n2c(=O)n(C(C(=O)NCCCN3CCNCC3)c3ccccc3)c3cc(Cl)ccc32)cc1 (stereo not shown) [Example 135, 2-[6-Chloro-3-(4-methoxybenzenesulfonyl)-2-oxo-2,3-dihydrobenzimidazol-1-yl] 2-phenyl-N-(3-piperazin-1-ylpropyl)acetamide] | 6.30 to 7.00
7 | CC(C(=O)N1CCN(c2ccncc2)CC1)n1c(=O)n(S(=O)(=O)c2ccc(C#N)cc2)c2ccc(Cl)cc21 (stereo not shown) [Example 32, 4-{5-Chloro-3-[1-methyl-2-oxo-2-(4-pyridin-4-ylpiperazin-1-yl)ethyl]-2-oxo-2,3-dihydrobenzimidazole-1-sulfonyl}benzonitrile] | 5.00 to 6.30
8 | COc1ccc(S(=O)(=O)n2c(=O)n(C(C(=O)NCCCCN(C)C)c3ccccc3)c3cc(Cl)ccc32)cc1 (stereo not shown) [Example 124, 2-[6-Chloro-3-(4-methoxybenzenesulfonyl)-2-oxo-2,3-dihydrobenzimidazol-1-yl]—N-(4-dimethylaminobutyl)-2-phenylacetamide] | 6.30 to 7.00
9 | COc1ccc(S(=O)(=O)n2c(=O)n(C(C(=O)N3CCN(C4CCN(C)CC4)CC3)c3ccccc3OC)c3cc(Cl)ccc32)c(OC)c1 (stereo not shown) [Example 8, 5-Chloro-1-(2,4-dimethoxybenzenesulfonyl)-3-{1-(2-methoxyphenyl)-2-[4-(1-methylpiperidin-4-yl)piperazin-1-yl]-2-oxoethyl}-1,3-dihydrobenzimidazol-2-one] | 5.00 to 6.30
10 | COc1ccc(S(=O)(=O)n2c(=O)n(C(C(=O)N3CCCN(C)CC3)c3ccccc3)c3cc(Cl)ccc32)cc1 (stereo not shown) [Example 126, 5-Chloro-1-(4-methoxybenzenesulfonyl)-3-[2-(4-methyl-[1,4]diazepan-1-yl)-2-oxo-1-phenylethyl]-1,3-dihydrobenzoimidazol-2-one] | 6.30 to 7.00
11 | COc1ccc(S(=O)(=O)n2c(=O)n(C(C(=O)N3CC[C@H](CN4CCN(C)CC4)C3)c3ccccc3)c3cc(C#N)ccc32)cc1 (stereo partly drawn) [Example 236, 1-(4-Methoxy-benzenesulfonyl)-3-{2-[(R)-3-(4-methyl-piperazin-1-ylmethyl)-pyrrolidin-1-yl]-2-oxo-1-phenyl-ethyl}-2-oxo-2,3-dihydro-1H-benzoimidazole-5-carbonitrile; compound with trifluoroacetic acid] | > 7.00
12 | CCN1CCN(C[C@H]2CCN(C(=O)C(c3ccccc3)n3c(=O)n(S(=O)(=O)c4ccc(OC)cc4)c4ccc(C#N)cc43)C2)CC1 (stereo partly drawn) [Example 237, 3-{2-[(R)-3-(4-Ethyl-piperazin-1-ylmethyl)-pyrrolidin-1-yl]-2-oxo-1-phenyl-ethyl}-1-(4-methoxy-benzenesulfonyl)-2-oxo-2,3-dihydro-1H-benzoimidazole-5-carbonitrile; compound with trifluoroacetic acid] | > 7.00
13 | COc1ccc(S(=O)(=O)n2c(=O)n(C(C(=O)NCCN3CCNCC3)c3ccccc3)c3cc(Cl)ccc32)cc1 (stereo not shown) [Example 131, 2-[6-Chloro-3-(4-methoxybenzenesulfonyl)-2-oxo-2,3-dihydrobenzimidazol-1-yl]-2-phenyl-N-(2-piperazin-1-ylethyl)acetamide] | 6.30 to 7.00
14 | COc1ccc(S(=O)(=O)n2c(=O)n(C(C(=O)N3CC[C@H](CN4CCN(Cc5ccccc5)CC4)C3)c3ccccc3)c3cc(C#N)ccc32)cc1 (stereo partly drawn) [Example 220, 3-{2-[(R)-3-(4-Benzyl-piperazin-1-ylmethyl)-pyrrolidin-1-yl]-2-oxo-1-phenylethyl}-1-(4-methoxy-benzenesulfonyl)-2-oxo-2,3-dihydro-1H-benzoimidazole-5-carbonitrile; compound with trifluoroacetic acid] | > 7.00
15 | COc1ccc(S(=O)(=O)n2c(=O)n(C(C(=O)N3CCN(c4ccncc4)CC3)c3ccccc3)c3ccccc32)cc1 (stereo not shown) [Example 41, 1-(4-Methoxybenzenesulfonyl)-3-[2-oxo-1-phenyl-2-(4-pyridin-4-ylpiperazin-1-yl)ethyl]-1,3-dihydrobenzimidazol-2-one] | 5.00 to 6.30

Other lines, results leading:

Row | pKi | Compound
16 | > 7.00 | CCCN1CCN([C@H]2CCN(C(=O)C(c3ccccc3)n3c(=O)n(S(=O)(=O)c4ccc(OCC(F)F)cc4)c4ccc(C#N)cc43)C2)CC1 (stereo partly drawn) [Example 233, 1-[4-(2,2-Difluoro-ethoxy)-benzenesulfonyl]-2-oxo-3-{2-oxo-1-phenyl-2-[(S)-3-(4-propyl-piperazin-1-yl)-pyrrolidin-1-yl]-ethyl}-2,3-dihydro-1H-benzoimidazole-5-carbonitrile]
17 | 5.00 to 6.30 | CN1CCC(N2CCN(C(=O)C(c3ccccc3)n3c(=O)n(S(=O)(=O)c4ccc(C#N)cc4)c4ccc(C#N)cc43)CC2)CC1 (stereo not shown) [Example 23, 1-(4-Cyanobenzenesulfonyl)-3-{2-[4-(1-methylpiperidin-4-yl)piperazin-1-yl]-2-oxo-1-phenylethyl}-2-oxo-2,3-dihydro-1H-benzimidazole-5-carbonitrile]
18 | > 7.00 | CCCN1CCN(C2CCN(C(=O)C(c3ccccc3)n3c(=O)n(S(=O)(=O)c4ccc(OC)cc4)c4ccc(I)cc43)C2)CC1 (stereo not shown) [Example 80, 5-Iodo-1-(4-methoxybenzenesulfonyl)-3-{2-oxo-1-phenyl-2-[3-(4-propylpiperazin-1-yl)pyrrolidin-1-yl]ethyl}-1,3-dihydrobenzimidazol-2-one]
19 | 6.30 to 7.00 | COc1ccc(S(=O)(=O)n2c(=O)n(C(C(=O)N3CCN(CC4CCCN(C)C4)CC3)c3ccccc3)c3cc(Cl)ccc32)cc1 (stereo not shown) [Example 96, 5-Chloro-1-(4-methoxybenzenesulfonyl)-3-{2-[4-(1-methylpiperidin-3-ylmethyl)piperazin-1-yl]-2-oxo-1-phenylethyl}-1,3-dihydrobenzimidazol-2-one]
20 | > 7.00 | COc1ccc(S(=O)(=O)n2c(=O)n(C(C(=O)N3CC[C@H](NCc4c[nH]cn4)C3)c3ccccc3)c3cc(C#N)ccc32)cc1 (stereo partly drawn) [Example 242, 3-(2-{(S)-3-[(1H-Imidazol-4-ylmethyl)-amino]-pyrrolidin-1-yl}-2-oxo-1-phenylethyl)-1-(4-methoxy-benzenesulfonyl)-2-oxo-2,3-dihydro-1H-benzoimidazole-5-carbonitrile; compound with trifluoroacetic acid]
21 | 6.30 to 7.00 | O=C(C(c1ccccc1)n1c(=O)n(S(=O)(=O)c2ccco2)c2ccc(Cl)cc21)N1CCN(c2ccncc2)CC1 (stereo not shown) [Example 2, 5-Chloro-1-(furan-2-sulfonyl)-3-[2-oxo-1-phenyl-2-(4-pyridin-4-ylpiperazin-1-yl)ethyl]-1,3-dihydrobenzimidazol-2-one]
22 | 6.30 to 7.00 | COc1ccc(S(=O)(=O)n2c(=O)n(C(C(=O)N3CC[C@@H](N4CCN(C)CC4)C3)c3ccccc3)c3cc(C#N)ccc32)cc1 (stereo partly drawn) [Example 162, 1-(4-Methoxybenzenesulfonyl)-3-{2-[(R)-3-(4-methylpiperazin-1-yl)-pyrrolidin-1-yl]-2-oxo-1-phenylethyl}-2-oxo-2,3-dihydro-1H-benzimidazole-5-carbonitrile]
